Reference: publication PMC10065276, “Enhanced therapeutic window for antimicrobial Pept-ins by investigating their structure-activity relationship” (PLOS ONE, 2023)
Residues, ends and D or L forms follow the SMILES beside them.

Tested on: E. coli BL21
Conditions: BL21, 17 h
Outline: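 EUCAST broth microdilution in Mueller-Hinton medium; end-exponential culture diluted to 0.005 McF (~1.5x10^6 CFU/mL) before 1:1 mixing with two-fold peptide dilutions (0.75 to 100 μg/mL), triplicates.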

Structure (SMILES): CC[C@H](C)[C@H](NC(=O)CNC(=O)[C@H](CC(C)C)NC(=O)[C@@H](N)CCCNC(=N)N)C(=O)N[C@@H](C)C(=O)N[C@H](C(=O)N[C@@H](C)C(=O)N[C@@H](CC(C)C)C(=O)N[C@@H](C)C(=O)N[C@@H](CCCNC(=N)N)C(=O)N1CCC[C@H]1C(=O)N[C@@H](CCCNC(=N)N)C(=O)N[C@@H](CC(C)C)C(=O)NCC(=O)N[C@H](C(=O)N[C@@H](C)C(=O)N[C@H](C(=O)N[C@@H](C)C(=O)N[C@@H](CC(C)C)C(=O)N[C@@H](CCCNC(=N)N)C(=O)N[C@@H](CCCNC(=N)N)C(=O)O)C(C)C)[C@@H](C)CC)C(C)C [Peptide P33-R9A] (H-RLGIAVALARPRLGIAVALRR-OH)
- BL21 MIC: 6.25 µg/mL

Structure (SMILES): CC[C@H](C)[C@H](NC(=O)CNC(=O)[C@H](CC(C)C)NC(=O)[C@@H](N)CCCNC(=N)N)C(=O)N[C@@H](C)C(=O)N[C@@H](C)C(=O)N[C@@H](C)C(=O)N[C@@H](CC(C)C)C(=O)N[C@@H](CCCNC(=N)N)C(=O)N[C@@H](CCCNC(=N)N)C(=O)N1CCC[C@H]1C(=O)N[C@@H](CCCNC(=N)N)C(=O)N[C@@H](CC(C)C)C(=O)NCC(=O)N[C@H](C(=O)N[C@@H](C)C(=O)N[C@H](C(=O)N[C@@H](C)C(=O)N[C@@H](CC(C)C)C(=O)N[C@@H](CCCNC(=N)N)C(=O)N[C@@H](CCCNC(=N)N)C(=O)O)C(C)C)[C@@H](C)CC [Peptide P33-V6A] (H-RLGIAAALRRPRLGIAVALRR-OH)
- BL21 MIC: 6.25 µg/mL

Structure (SMILES): CC[C@H](C)[C@H](NC(=O)CNC(=O)[C@H](CC(C)C)NC(=O)[C@H](CCCNC(=N)N)NC(=O)[C@@H]1CCCN1C(=O)[C@H](CCCNC(=N)N)NC(=O)[C@H](CCCNC(=N)N)NC(=O)[C@H](CC(C)C)NC(=O)[C@H](C)NC(=O)[C@@H](NC(=O)[C@H](C)NC(=O)[C@@H](NC(=O)CNC(=O)[C@H](CC(C)C)NC(=O)[C@@H](N)CCCNC(=N)N)[C@@H](C)CC)C(C)C)C(=O)N[C@@H](C)C(=O)N[C@@H](C)C(=O)N[C@@H](C)C(=O)N[C@@H](CC(C)C)C(=O)N[C@@H](CCCNC(=N)N)C(=O)N[C@@H](CCCNC(=N)N)C(=O)O [Peptide P33-V17A] (H-RLGIAVALRRPRLGIAAALRR-OH)
- BL21 MIC: 6.25 µg/mL

Structure (SMILES): CC[C@H](C)[C@H](NC(=O)CNC(=O)[C@H](CC(C)C)NC(=O)[C@H](CCCNC(=N)N)NC(=O)[C@@H]1CCCN1C(=O)[C@H](CC(C)C)NC(=O)[C@H](C)NC(=O)[C@@H](NC(=O)[C@H](C)NC(=O)[C@@H](NC(=O)CNC(=O)[C@H](CC(C)C)NC(=O)[C@@H](N)CCCNC(=N)N)[C@@H](C)CC)C(C)C)C(=O)N[C@@H](C)C(=O)N[C@H](C(=O)N[C@@H](C)C(=O)N[C@@H](CC(C)C)C(=O)N[C@@H](CCCNC(=N)N)C(=O)O)C(C)C [Peptide P33_3R_1] (H-RLGIAVALPRLGIAVALR-OH)
- BL21 MIC: 12.5 µg/mL

Structure (SMILES): CC[C@H](C)[C@H](NC(=O)CNC(=O)[C@H](CC(C)C)NC(=O)[C@@H]1CCCN1C(=O)[C@H](CCCNC(=N)N)NC(=O)[C@H](CC(C)C)NC(=O)[C@H](C)NC(=O)[C@@H](NC(=O)[C@H](C)NC(=O)[C@@H](NC(=O)CNC(=O)[C@H](CC(C)C)NC(=O)[C@@H](N)CCCNC(=N)N)[C@@H](C)CC)C(C)C)C(=O)N[C@@H](C)C(=O)N[C@H](C(=O)N[C@@H](C)C(=O)N[C@@H](CC(C)C)C(=O)N[C@@H](CCCNC(=N)N)C(=O)O)C(C)C [Peptide P33_3R_2] (H-RLGIAVALRPLGIAVALR-OH)
- BL21 MIC: 25.00 µg/mL

Structure (SMILES): CC[C@H](C)[C@H](NC(=O)CNC(=O)[C@H](CC(C)C)NC(=O)[C@H](C)NC(=O)[C@@H]1CCCN1C(=O)[C@H](CCCNC(=N)N)NC(=O)[C@H](C)NC(=O)[C@H](CC(C)C)NC(=O)[C@H](C)NC(=O)[C@@H](NC(=O)[C@H](C)NC(=O)[C@@H](NC(=O)CNC(=O)[C@H](CC(C)C)NC(=O)[C@@H](N)CCCNC(=N)N)[C@@H](C)CC)C(C)C)C(=O)N[C@@H](C)C(=O)N[C@H](C(=O)N[C@@H](C)C(=O)N[C@@H](CC(C)C)C(=O)N[C@@H](C)C(=O)N[C@@H](CCCNC(=N)N)C(=O)O)C(C)C [Peptide P33_3R_3] (H-RLGIAVALARPALGIAVALAR-OH)
- BL21 MIC: >100 µg/mL

Structure (SMILES): CC[C@H](C)[C@H](NC(=O)CNC(=O)[C@H](CC(C)C)NC(=O)[C@H](C)NC(=O)[C@@H]1CCCN1C(=O)[C@H](C)NC(=O)[C@H](CCCNC(=N)N)NC(=O)[C@H](CC(C)C)NC(=O)[C@H](C)NC(=O)[C@@H](NC(=O)[C@H](C)NC(=O)[C@@H](NC(=O)CNC(=O)[C@H](CC(C)C)NC(=O)[C@@H](N)CCCNC(=N)N)[C@@H](C)CC)C(C)C)C(=O)N[C@@H](C)C(=O)N[C@H](C(=O)N[C@@H](C)C(=O)N[C@@H](CC(C)C)C(=O)N[C@@H](C)C(=O)N[C@@H](CCCNC(=N)N)C(=O)O)C(C)C [Peptide P33_3R_4] (H-RLGIAVALRAPALGIAVALAR-OH)
- BL21 MIC: 50.00 µg/mL

Structure (SMILES): CC[C@H](C)[C@H](NC(=O)CNC(=O)[C@H](CC(C)C)NC(=O)[C@H](CCCNC(=N)N)NC(=O)[C@@H]1CCCN1C(=O)[C@H](CCCNC(=N)N)NC(=O)[C@H](CC(C)C)NC(=O)[C@H](C)NC(=O)[C@@H](NC(=O)[C@H](C)NC(=O)[C@@H](NC(=O)CNC(=O)[C@H](CC(C)C)NC(=O)[C@@H](N)CCCNC(=N)N)[C@@H](C)CC)C(C)C)C(=O)N[C@@H](C)C(=O)N[C@H](C(=O)N[C@@H](C)C(=O)N[C@@H](CC(C)C)C(=O)N[C@@H](CCCNC(=N)N)C(=O)O)C(C)C [Peptide P33_4R_1] (H-RLGIAVALRPRLGIAVALR-OH)
- BL21 MIC: 6.25 µg/mL

Structure (SMILES): CC[C@H](C)[C@H](NC(=O)CNC(=O)[C@H](CC(C)C)NC(=O)[C@H](CCCNC(=N)N)NC(=O)[C@@H]1CCCN1C(=O)[C@H](CCCNC(=N)N)NC(=O)[C@H](CCCNC(=N)N)NC(=O)[C@H](CC(C)C)NC(=O)[C@H](C)NC(=O)[C@@H](NC(=O)[C@H](C)NC(=O)[C@@H](NC(=O)CNC(=O)[C@H](CC(C)C)NC(=O)[C@H](C)N)[C@@H](C)CC)C(C)C)C(=O)N[C@@H](C)C(=O)N[C@H](C(=O)N[C@@H](C)C(=O)N[C@@H](CC(C)C)C(=O)N[C@@H](C)C(=O)N[C@@H](CCCNC(=N)N)C(=O)O)C(C)C [Peptide P33_4R_2] (H-ALGIAVALRRPRLGIAVALAR-OH)
- BL21 MIC: 25.00 µg/mL

Structure (SMILES): CC[C@H](C)[C@H](NC(=O)CNC(=O)[C@H](CC(C)C)NC(=O)[C@H](CCCNC(=N)N)NC(=O)[C@@H]1CCCN1C(=O)[C@H](CCCNC(=N)N)NC(=O)[C@H](C)NC(=O)[C@H](CC(C)C)NC(=O)[C@H](C)NC(=O)[C@@H](NC(=O)[C@H](C)NC(=O)[C@@H](NC(=O)CNC(=O)[C@H](CC(C)C)NC(=O)[C@@H](N)CCCNC(=N)N)[C@@H](C)CC)C(C)C)C(=O)N[C@@H](C)C(=O)N[C@H](C(=O)N[C@@H](C)C(=O)N[C@@H](CC(C)C)C(=O)N[C@@H](C)C(=O)N[C@@H](CCCNC(=N)N)C(=O)O)C(C)C [Peptide P33_4R_3] (H-RLGIAVALARPRLGIAVALAR-OH)
- BL21 MIC: 50.00 µg/mL

Structure (SMILES): CC[C@H](C)[C@H](NC(=O)CNC(=O)[C@H](CC(C)C)NC(=O)[C@H](CCCNC(=N)N)NC(=O)[C@@H]1CCCN1C(=O)[C@H](C)NC(=O)[C@H](CCCNC(=N)N)NC(=O)[C@H](CC(C)C)NC(=O)[C@H](C)NC(=O)[C@@H](NC(=O)[C@H](C)NC(=O)[C@@H](NC(=O)CNC(=O)[C@H](CC(C)C)NC(=O)[C@@H](N)CCCNC(=N)N)[C@@H](C)CC)C(C)C)C(=O)N[C@@H](C)C(=O)N[C@H](C(=O)N[C@@H](C)C(=O)N[C@@H](CC(C)C)C(=O)N[C@@H](C)C(=O)N[C@@H](CCCNC(=N)N)C(=O)O)C(C)C [Peptide P33_4R_4] (H-RLGIAVALRAPRLGIAVALAR-OH)
- BL21 MIC: 12.50 µg/mL
